Activity calls are given as the source filed them. No cut-off for these calls is given here.
Legend:
[1] = system: Isocitrate dehydrogenase [NADP] cytoplasmic (Homo sapiens), O75874 [R132H]; assay: Inhibition of recombinant human IDH1 R132H mutant extracted from Escherichia coli BL21 (DE3) cells using alpha-ketoglutarate as substrate at 2 uM incubated for 60 mins in presence of NADPH by absorbance based assay relative to control
[2] = system: Isocitrate dehydrogenase [NADP] cytoplasmic (Homo sapiens), O75874 [R132H]; assay: Inhibition of recombinant human IDH1 R132H mutant extracted from Escherichia coli BL21 (DE3) cells using alpha-ketoglutarate as substrate at 0.2 uM incubated for 60 mins in presence of NADPH by absorbance based assay relative to control
[3] = system: Isocitrate dehydrogenase [NADP] cytoplasmic (Homo sapiens), O75874 [R132C]; assay: Inhibition of recombinant human IDH1 R132C mutant extracted from Escherichia coli BL21 (DE3) cells using alpha-ketoglutarate as substrate at 2 uM incubated for 60 mins in presence of NADPH by absorbance based assay relative to control
Chain of Isocitrate dehydrogenase [NADP] cytoplasmic (Homo sapiens), O75874 [R132C] (O75874 whole entry R132C): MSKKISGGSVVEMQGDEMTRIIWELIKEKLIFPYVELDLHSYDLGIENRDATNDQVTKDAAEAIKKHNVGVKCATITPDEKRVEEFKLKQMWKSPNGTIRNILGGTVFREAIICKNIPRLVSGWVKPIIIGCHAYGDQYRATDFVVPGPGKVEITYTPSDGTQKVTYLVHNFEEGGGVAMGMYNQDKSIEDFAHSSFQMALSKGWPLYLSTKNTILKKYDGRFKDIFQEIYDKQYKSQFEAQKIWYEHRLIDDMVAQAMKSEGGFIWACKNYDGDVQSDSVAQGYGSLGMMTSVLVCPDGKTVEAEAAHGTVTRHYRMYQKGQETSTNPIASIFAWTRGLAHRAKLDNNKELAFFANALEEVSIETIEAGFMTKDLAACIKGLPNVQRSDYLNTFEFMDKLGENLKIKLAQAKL

[4] = system: Isocitrate dehydrogenase [NADP] cytoplasmic (Homo sapiens), O75874 [R132C]; assay: Inhibition of recombinant human IDH1 R132C mutant extracted from Escherichia coli BL21 (DE3) cells using alpha-ketoglutarate as substrate at 0.2 uM incubated for 60 mins in presence of NADPH by absorbance based assay relative to control
[5] = biological target: Isocitrate dehydrogenase [NADP] cytoplasmic (Homo sapiens, UniProt O75874); assay: Inhibition of recombinant human wildtype IDH1 extracted from Escherichia coli BL21 (DE3) cells using alpha-ketoglutarate as substrate incubated for 60 mins in presence of NADPH by absorbance based assay
Chain of Isocitrate dehydrogenase [NADP] cytoplasmic (Homo sapiens, UniProt O75874) (O75874 whole entry): as the sequence (O75874 whole entry R132C) above, with C132R counted along it

[6] = system: Isocitrate dehydrogenase [NADP] cytoplasmic (Homo sapiens), O75874 [R132H]; assay: Inhibition of IDH1 R132H mutant in human U-87 MG cells assessed as reduction in 2-HG level at 10 uM incubated for 48 hrs in presence of NAD+ by resazurin fluorescence dye based Sigma MAK320-1 assay kit analysis relative to control; format: cell-based
L02 = assay: Cytotoxicity against human L02 cells assessed as inhibition of cell growth at 50 uM; format: toxicity, cell-based; details: l02, 50 µM
HT-1080 [7] = assay: Antiproliferative activity against human HT-1080 cells harboring IDH1 R132C mutant assessed as reduction in cell viability at 10 uM incubated for 72 hrs by MTT assay; format: functional, cell-based
HT-1080 [8] = assay: Antiproliferative activity against human HT-1080 cells harboring IDH1 R132C mutant assessed as reduction in cell viability incubated for 72 hrs by MTT assay; format: functional
U-87 MG [9] = assay: Antiproliferative activity against human U-87 MG cells harboring IDH1 R132H mutant assessed as reduction in cell viability incubated for 72 hrs by MTT assay; format: functional, U-87MG ATCC
U-87 MG [10] = assay: Antiproliferative activity against human U-87 MG cells assessed as reduction in cell viability incubated for 72 hrs by MTT assay; format: functional, U-87MG ATCC
[11] = biological target: T1, Isocitrate dehydrogenase [NADP] cytoplasmic (Homo sapiens, UniProt O75874, R132H); assay: Inhibition of IDH1 R132H mutant (unknown origin)
T1 sequence (O75874 2-414 R132H limits assumed): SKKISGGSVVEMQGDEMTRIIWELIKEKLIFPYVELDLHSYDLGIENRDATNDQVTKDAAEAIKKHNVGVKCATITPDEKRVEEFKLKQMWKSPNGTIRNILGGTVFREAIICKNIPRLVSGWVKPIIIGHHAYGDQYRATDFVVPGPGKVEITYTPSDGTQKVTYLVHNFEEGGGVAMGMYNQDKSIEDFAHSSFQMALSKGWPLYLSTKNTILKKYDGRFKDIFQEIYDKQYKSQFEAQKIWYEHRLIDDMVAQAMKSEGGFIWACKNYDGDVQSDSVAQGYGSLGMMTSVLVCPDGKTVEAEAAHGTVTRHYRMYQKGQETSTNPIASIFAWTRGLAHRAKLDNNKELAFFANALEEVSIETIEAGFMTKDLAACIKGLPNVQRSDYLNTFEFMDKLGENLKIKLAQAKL

[12] = biological target: T2, Isocitrate dehydrogenase [NADP] cytoplasmic (Homo sapiens, UniProt O75874, R132C); assay: Inhibition of IDH1 R132C mutant (unknown origin)
T2 sequence (O75874 2-414 R132C limits assumed): as the sequence (O75874 2-414 R132H limits assumed) above, with H131C counted along it

[13] = biological target: T1, Isocitrate dehydrogenase [NADP] cytoplasmic; assay: Inhibition of recombinant human IDH1 R132H mutant extracted from Escherichia coli BL21 (DE3) cells using alpha-ketoglutarate as substrate incubated for 60 mins in presence of NADPH by absorbance based assay
[14] = biological target: T2, Isocitrate dehydrogenase [NADP] cytoplasmic; assay: Inhibition of recombinant human IDH1 R132C mutant extracted from Escherichia coli BL21 (DE3) cells using alpha-ketoglutarate as substrate incubated for 60 mins in presence of NADPH by absorbance based assay
[15] = biological target: T2, Isocitrate dehydrogenase [NADP] cytoplasmic; assay: Inhibition of IDH1 R132C mutant in human HT-1080 cells assessed as reduction in 2-HG level incubated for 48 hrs in presence of NAD+ by resazurin fluorescence dye based Sigma MAK320-1 assay kit analysis; format: cell-based
[16] = biological target: T1, Isocitrate dehydrogenase [NADP] cytoplasmic; assay: Inhibition of IDH1 R132H mutant in human U-87 MG cells assessed as reduction in 2-HG level incubated for 48 hrs in presence of NAD+ by resazurin fluorescence dye based Sigma MAK320-1 assay kit analysis; format: cell-based

Chain of Isocitrate dehydrogenase [NADP] cytoplasmic (Homo sapiens), O75874 [R132H] (O75874 whole entry R132H): as the sequence (O75874 whole entry R132C) above, with C132H counted along it

## CCCCc1nc(-c2ccc(O)cc2)cc(-c2cc(CC=C(C)C)c(OC)cc2O)n1
[1]
  inhibition: 51.6%
[2]
  inhibition: 7.6%
[3]
  inhibition: 41.2%
[4]
  inhibition: 10.3%

## COc1cc(O)c(-c2cc(-c3ccc(O)cc3)nc(N3CCN(c4ncccn4)CC3)n2)cc1CC=C(C)C
[1]
  inhibition: 37.4%
[2]
  inhibition: inactive
[3]
  inhibition: 32.5%
[4]
  inhibition: 10.4%

## COc1cc(O)c(-c2cc(-c3ccc(O)cc3)nc(C3CCCO3)n2)cc1CC=C(C)C (stereo unspecified)
[1]
  inhibition: 60.1%
[2]
  inhibition: 14.7%
[3]
  inhibition: 70.4%
[4]
  inhibition: 13.4%

## COCOc1ccc(/C=C/C(=O)c2cc(CC=C(C)C)c(OC)cc2O)cc1
[1]
  inhibition: inactive
[2]
  inhibition: inactive
[3]
  inhibition: inactive
[4]
  inhibition: inactive

## O=C(/C=C/c1ccc(O)cc1)OC[C@H]1O[C@@H](Oc2c(-c3ccc(O)cc3)oc3cc(O)cc(O)c3c2=O)[C@H](O)[C@@H](O)[C@@H]1O [TILIROSIDE]
[1]
  inhibition: 58.1%
[5]
  IC50: > 20000 nM
[6]
  inhibition: < 10%

## COc1cc(OC)c(-c2cc(-c3ccc(O)cc3)nc(-c3ncccn3)n2)cc1CC=C(C)C
[1]
  inhibition: 91.2%
[2]
  inhibition: 33.4%
[3]
  inhibition: 81.2%
[4]
  inhibition: 11%

## COc1cc(O)c(-c2cc(-c3ccc(O)cc3)ncn2)cc1CC=C(C)C
[1]
  inhibition: 47.2%
[2]
  inhibition: 13.4%
[3]
  inhibition: 58.6%
[4]
  inhibition: 17.8%
L02
  Activity: Toxic

## COc1cc(O)c(-c2cc(-c3ccc(O)cc3)nc(-c3ccccn3)n2)cc1CC=C(C)C
[1]
  inhibition: 74%
[2]
  inhibition: 33.1%
[3]
  inhibition: 76.8%
[4]
  inhibition: 22.7%
HT-1080 [7]
  Activity: Active
L02
  Activity: Toxic
HT-1080 [8]
  GC50: 850 nM
U-87 MG [9]
  GC50: >20000 nM
U-87 MG [10]
  GC50: >20000 nM

## COc1cc(O)c(-c2cc(-c3ccc(O)cc3)nc(N3CCN(C(C)=O)CC3)n2)cc1CC=C(C)C
[1]
  inhibition: 61.2%
[2]
  inhibition: 34.7%
[3]
  inhibition: 69.4%
[4]
  inhibition: 12.8%

## COc1cc(O)c(-c2cc(-c3ccc(O)cc3)nc(-c3ccccc3)n2)cc1CC=C(C)C
[1]
  inhibition: 88.5%
[2]
  inhibition: 27%
[3]
  inhibition: 96.4%
[4]
  inhibition: 37.7%

## COc1cc(O)c(-c2cc(-c3ccc(O)cc3)nc(N)n2)cc1CC=C(C)C
[1]
  inhibition: 30.7%
[2]
  inhibition: 11.2%
[3]
  inhibition: 47.5%
[4]
  inhibition: 8.9%

## COc1cc(O)c(-c2cc(-c3ccc(O)cc3)nc(-c3cnccn3)n2)cc1CC=C(C)C
[1]
  inhibition: 81.8%
[2]
  inhibition: 17.2%
[3]
  inhibition: 67.3%
[4]
  inhibition: 24.5%

## COc1c(C)cc(NC(=O)c2nn(Cc3ccc(F)cc3)c3c2CN(C(=O)c2ccc[nH]2)C[C@]3(C)C(N)=O)cc1C
[11]
  IC50: 15.2 nM
[12]
  IC50: 8.8 nM

## COc1cc(O)c(C(=O)/C=C/c2ccc(O)cc2)cc1CC=C(C)C
[1]
  inhibition: 54%
[5]
  IC50: > 20000 nM
[2]
  inhibition: 14.9%
[3]
  inhibition: 46.3%
[4]
  inhibition: inactive
[6]
  inhibition: 35.8%

## CC(Cc1ccc(O)c(O)c1)C(C)Cc1ccc(O)c(O)c1 (stereo unspecified) [NORDIHYDROGUAIARETIC ACID]
[1]
  inhibition: 51.2%
[5]
  IC50: > 20000 nM
[6]
  inhibition: < 10%

## COc1ccc(-c2cc(-c3ccc(O)cc3)nc(-c3ncccn3)n2)c(O)c1
[1]
  inhibition: > 100%
[5]
  IC50: > 20000 nM
[2]
  inhibition: 73.1%
[3]
  inhibition: 97.5%
[4]
  inhibition: 82%
[13]
  IC50: 90.2 nM
[14]
  IC50: 78.9 nM
[15]
  EC50: 279 nM
[16]
  EC50: 263 nM
L02
  Activity: Toxic
U-87 MG [9]
  GC50: 6800 nM
U-87 MG [10]
  GC50: >20000 nM

## COc1cc(O)c(-c2cc(-c3ccc(O)cc3)nc(N3CCCCC3)n2)cc1CC=C(C)C
[1]
  inhibition: 93.6%
[2]
  inhibition: 9.4%
[3]
  inhibition: 89.7%
[4]
  inhibition: 11.8%

## COc1cc(O)c(-c2cc(-c3ccc(O)cc3)nc(-c3nn(Cc4ccccc4F)c4ncccc34)n2)cc1CC=C(C)C
[1]
  inhibition: 89.4%
[2]
  inhibition: 30.5%
[3]
  inhibition: 81.9%
[4]
  inhibition: 40.1%

## COc1ccc(-c2cc(-c3cc(CC=C(C)C)c(OC)cc3OC)nc(-c3ncccn3)n2)cc1
[1]
  inhibition: 87.3%
[2]
  inhibition: 12.1%
[3]
  inhibition: 92.4%
[4]
  inhibition: 24.7%
L02
  Activity: Toxic

## COc1cc(O)c(-c2cc(-c3ccc(O)cc3)nc(-c3cccnc3)n2)cc1CC=C(C)C
[1]
  inhibition: 48.3%
[2]
  inhibition: 17.7%
[3]
  inhibition: 57.9%
[4]
  inhibition: 20.3%
L02
  Activity: Toxic

## COc1cc(O)c(-c2cc(-c3ccc(O)cc3)nc(N3CCOCC3)n2)cc1CC=C(C)C
[1]
  inhibition: 82.1%
[2]
  inhibition: 13.8%
[3]
  inhibition: 94.6%
[4]
  inhibition: 24.1%

## COc1cc(O)c(-c2cc(-c3ccc(O)cc3)nc(C)n2)cc1CC=C(C)C
[1]
  inhibition: 49.1%
[2]
  inhibition: 13.6%
[3]
  inhibition: 67.2%
[4]
  inhibition: 12.5%
L02
  Activity: Toxic

## COC(=O)N1CCN(c2nc(-c3ccc(O)cc3)cc(-c3cc(CC=C(C)C)c(OC)cc3O)n2)CC1
[1]
  inhibition: 75.4%
[2]
  inhibition: 21.1%
[3]
  inhibition: 80.1%
[4]
  inhibition: 24.6%

## COc1cc(O)c(-c2cc(-c3ccc(O)cc3)nc(N3CCCC3)n2)cc1CC=C(C)C
[1]
  inhibition: 70.2%
[2]
  inhibition: 5%
[3]
  inhibition: 84.3%
[4]
  inhibition: 30.9%

## COc1cc(O)c(-c2cc(-c3ccc(O)cc3)nc(-c3ccncc3)n2)cc1CC=C(C)C
[1]
  inhibition: 56.7%
[2]
  inhibition: 9.7%
[3]
  inhibition: 68.1%
[4]
  inhibition: 28.2%
HT-1080 [7]
  Activity: Active
L02
  Activity: Toxic
HT-1080 [8]
  GC50: 6000 nM

## COCOc1ccc(/C=C/C(=O)c2cc(CC=C(C)C)c(OC)cc2OC)cc1
[1]
  inhibition: inactive
[2]
  inhibition: inactive
[3]
  inhibition: inactive
[4]
  inhibition: inactive

## COc1cc(OC)c(C(=O)/C=C/c2ccc(O)cc2)cc1CC=C(C)C
[1]
  inhibition: inactive
[2]
  inhibition: inactive
[3]
  inhibition: inactive
[4]
  inhibition: inactive

## COc1cc(O)c(-c2cc(-c3ccc(O)cc3)nc(C(C)(C)C)n2)cc1CC=C(C)C
[1]
  inhibition: 60.4%
[2]
  inhibition: 13.5%
[3]
  inhibition: 53.1%
[4]
  inhibition: 14.7%

## COc1cc(O)c(-c2cc(-c3ccc(O)cc3)[nH]n2)cc1CC=C(C)C
[1]
  inhibition: 17.5%
[2]
  inhibition: inactive
[3]
  inhibition: 29.1%
[4]
  inhibition: 14.2%

## COc1cc(O)c(-c2cc(-c3ccc(O)cc3)nc(-c3ccncc3Cl)n2)cc1CC=C(C)C
[1]
  inhibition: 95.1%
[2]
  inhibition: 10.5%
[3]
  inhibition: 74.1%
[4]
  inhibition: 14.9%

## COc1cc(O)c(-c2cc(-c3ccc(O)cc3)nc(-c3ncccn3)n2)cc1CC=C(C)C
[1]
  inhibition: > 100%
[2]
  inhibition: 41.3%
[3]
  inhibition: > 100%
[4]
  inhibition: 14.6%

## COc1cc(O)c(-c2cc(-c3ccc(O)cc3)nc(-c3nccs3)n2)cc1CC=C(C)C
[1]
  inhibition: 61.1%
[2]
  inhibition: 11.1%
[3]
  inhibition: 56.3%
[4]
  inhibition: inactive
